Measured values from the supplement of paper PMC10307832.

Key:
Test in all cases: relative viability (nuclei count vs DMSO), 5 days (fraction); higher = more cells survive
Gemcitabine + Olaparib = compound: Nc1ccn([C@@H]2O[C@H](CO)[C@@H](O)C2(F)F)c(=O)n1 [Gemcitabine] + O=C(c1cc(Cc2n[nH]c(=O)c3ccccc23)ccc1F)N1CCN(C(=O)C2CC2)CC1 [Olaparib] (partner 8 µM)
How it was run: (§1)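 After 5 days of treatment, lung cancer cells in 1536-well plates were fixed and stained in a single step (final 0.05% Triton X-100, 1% formaldehyde, 1 ug/ml Hoechst) and their nuclei counted on 4× images. Treatment had been applied by pin tool the day after seeding as one drug alone or as a fixed anchor-drug dose with five library-drug doses (not always all listed) in √10 steps. Relative viability is the nuclei count of treated wells divided by that of vehicle wells, and values are medians of duplicate plates.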

Gemcitabine + Pemetrexed = compound: Nc1ccn([C@@H]2O[C@H](CO)[C@@H](O)C2(F)F)c(=O)n1 [Gemcitabine] + Nc1nc2[nH]cc(CCc3ccc(C(=O)N[C@@H](CCC(=O)O)C(=O)O)cc3)c2c(=O)[nH]1 [Pemetrexed] (partner 0.2 µM)
How it was run: as §1

Gemcitabine + Alpelisib = compound: Nc1ccn([C@@H]2O[C@H](CO)[C@@H](O)C2(F)F)c(=O)n1 [Gemcitabine] + Cc1nc(NC(=O)N2CCC[C@H]2C(N)=O)sc1-c1ccnc(C(C)(C)C(F)(F)F)c1 [Alpelisib] (partner 2 µM)
How it was run: as §1

[1] = compound: Nc1ccn([C@@H]2O[C@H](CO)[C@@H](O)C2(F)F)c(=O)n1 [Gemcitabine] + CC(=O)c1c(C)c2cnc(Nc3ccc(N4CCNCC4)cn3)nc2n(C2CCCC2)c1=O [Palbociclib] (partner 0.5 µM)
How it was run: as §1

Cell Line | relative viability (Gemcitabine + Olaparib; first compound 0.001 µM) | relative viability (Gemcitabine + Olaparib; first compound 0.003162 µM) | relative viability (Gemcitabine + Olaparib; first compound 0.01 µM) | relative viability (Gemcitabine + Olaparib; first compound 0.03162 µM) | relative viability (Gemcitabine + Olaparib; first compound 0.1 µM) | relative viability (Gemcitabine + Pemetrexed; first compound 0.001 µM) | relative viability (Gemcitabine + Pemetrexed; first compound 0.003162 µM) | relative viability (Gemcitabine + Pemetrexed; first compound 0.01 µM) | relative viability (Gemcitabine + Pemetrexed; first compound 0.03162 µM) | relative viability (Gemcitabine + Pemetrexed; first compound 0.1 µM) | relative viability (Gemcitabine + Alpelisib; first compound 0.001 µM) | relative viability (Gemcitabine + Alpelisib; first compound 0.003162 µM) | relative viability (Gemcitabine + Alpelisib; first compound 0.01 µM) | relative viability (Gemcitabine + Alpelisib; first compound 0.03162 µM) | relative viability (Gemcitabine + Alpelisib; first compound 0.1 µM) | relative viability ([1]; first compound 0.001 µM) | relative viability ([1]; first compound 0.003162 µM) | relative viability ([1]; first compound 0.01 µM) | relative viability ([1]; first compound 0.03162 µM) | relative viability ([1]; first compound 0.1 µM)
LOU-NH91 | 0.92 | 0.781 | 0.501 | 0.223 | 0.264 | 0.397 | 0.413 | 0.441 | 0.269 | 0.286 | 0.726 | 0.515 | 0.457 | 0.316 | 0.263 | 0.524 | 0.522 | 0.478 | 0.474 | 0.412
LU99A | 0.255 | 0.272 | 0.286 | 0.226 | 0.221 | 0.177 | 0.181 | 0.186 | 0.198 | 0.214 | 0.506 | 0.576 | 0.515 | 0.505 | 0.481 | 0.412 | 0.43 | 0.409 | 0.404 | 0.421
NCI-H596 | 0.733 | 0.714 | 0.384 | 0.336 | 0.311 | 0.531 | 0.491 | 0.476 | 0.403 | 0.319 | 0.489 | 0.454 | 0.345 | 0.329 | 0.194 | – | – | – | – | –
NCI-H727 | 0.816 | 0.592 | 0.35 | 0.464 | 0.426 | – | – | – | – | – | 0.412 | 0.311 | 0.199 | 0.221 | 0.212 | 0.674 | 0.592 | 0.574 | 0.597 | 0.503
NCI-H1299 | 0.984 | 1.03 | 0.962 | 1 | 0.937 | – | – | – | – | – | 1.04 | 1.1 | 1.03 | 1.05 | 1.09 | – | – | – | – | –
NCI-H1563 | – | – | – | – | – | 0.748 | 0.852 | 0.833 | 0.407 | 0.414 | 0.99 | 0.94 | 0.635 | 0.651 | 0.428 | – | – | – | – | –
NCI-H1648 | 1.01 | 0.659 | 0.497 | 0.335 | 0.227 | 0.836 | 0.64 | 0.628 | 0.339 | 0.349 | – | – | – | – | – | 0.267 | 0.273 | 0.262 | 0.226 | 0.327
NCI-H1650 | 0.886 | 0.522 | 0.479 | 0.12 | 0.122 | 0.362 | 0.326 | 0.305 | 0.157 | 0.172 | – | – | – | – | – | 0.339 | 0.308 | 0.261 | 0.186 | 0.127
NCI-H1703 | 0.359 | 0.266 | 0.0911 | 0.119 | 0.105 | – | – | – | – | – | 0.274 | 0.178 | 0.107 | 0.113 | 0.117 | – | – | – | – | –
NCI-H2342 | 0.457 | 0.401 | 0.277 | 0.244 | 0.259 | 0.821 | 0.698 | 0.748 | 0.412 | 0.337 | – | – | – | – | – | 0.484 | 0.527 | 0.46 | 0.433 | 0.393
SW 900 | 0.837 | 0.543 | 0.165 | 0.168 | 0.134 | 0.476 | 0.401 | 0.171 | 0.124 | 0.109 | – | – | – | – | – | 0.551 | 0.562 | 0.286 | 0.176 | 0.186
